Data published in PubChem BioAssay AID2060489 (Molecular Pharmacology Branch, DTP, NCI, 2025).

System: 922993-354-T-J3-PDC complex spheroids, viability
Experiment: Anticancer human tumor 922993-354-T-J3-PDC patient-derived endometrial carcinoma cell line growth inhibition [GQUAD]
Conditions: for IC50: curve of first compound; for viability, T/C: stronger effect = lower value
Method in brief: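 Tumor cells were grown as complex spheroids with HUVEC endothelial cells and mesenchymal stem cells as stroma. G-quadruplex stabilizers were combined with targeted agents over half-log dilutions from near the clinical Cmax, or from 10 microM.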

[1] = second compound 0.0316 µM, first compound 0.0316 µM
[2] = second compound 0.0316 µM, first compound 0.1 µM
[3] = second compound 0.0316 µM, first compound 0.316 µM
[4] = second compound 0.0316 µM, first compound 1 µM
[5] = second compound 0.0316 µM, first compound 3.16 µM
[6] = second compound 0.0316 µM, first compound 10 µM
[7] = second compound 0.1 µM, first compound 0.0316 µM
[8] = second compound 0.1 µM, first compound 0.1 µM
[9] = second compound 0.1 µM, first compound 0.316 µM
[10] = second compound 0.1 µM, first compound 1 µM
[11] = second compound 0.1 µM, first compound 3.16 µM
[12] = second compound 0.1 µM, first compound 10 µM
[13] = second compound 0.316 µM, first compound 0.0316 µM
[14] = second compound 0.316 µM, first compound 0.1 µM
[15] = second compound 0.316 µM, first compound 0.316 µM
[16] = second compound 0.316 µM, first compound 1 µM
[17] = second compound 0.316 µM, first compound 3.16 µM
[18] = second compound 0.316 µM, first compound 10 µM
[19] = second compound 1 µM, first compound 0.0316 µM
[20] = second compound 1 µM, first compound 0.1 µM
[21] = second compound 1 µM, first compound 0.316 µM
[22] = second compound 1 µM, first compound 1 µM
[23] = second compound 1 µM, first compound 3.16 µM
[24] = second compound 1 µM, first compound 10 µM
[25] = second compound 3.16 µM, first compound 0.0316 µM
[26] = second compound 3.16 µM, first compound 0.1 µM
[27] = second compound 3.16 µM, first compound 0.316 µM
[28] = second compound 3.16 µM, first compound 1 µM
[29] = second compound 3.16 µM, first compound 3.16 µM
[30] = second compound 3.16 µM, first compound 10 µM
[31] = second compound 10 µM, first compound 0.0316 µM
[32] = second compound 10 µM, first compound 0.1 µM
[33] = second compound 10 µM, first compound 0.316 µM
[34] = second compound 10 µM, first compound 1 µM
[35] = second compound 10 µM, first compound 3.16 µM
[36] = second compound 10 µM, first compound 10 µM
[37] = second compound 0.0316 µM, first compound 0.000999 µM
[38] = second compound 0.0316 µM, first compound 0.00316 µM
[39] = second compound 0.0316 µM, first compound 0.00999 µM
[40] = second compound 0.0316 µM, first compound 0.0999 µM
[41] = second compound 0.1 µM, first compound 0.000999 µM
[42] = second compound 0.1 µM, first compound 0.00316 µM
[43] = second compound 0.1 µM, first compound 0.00999 µM
[44] = second compound 0.1 µM, first compound 0.0999 µM
[45] = second compound 0.316 µM, first compound 0.000999 µM
[46] = second compound 0.316 µM, first compound 0.00316 µM
[47] = second compound 0.316 µM, first compound 0.00999 µM
[48] = second compound 0.316 µM, first compound 0.0999 µM
[49] = second compound 1 µM, first compound 0.000999 µM
[50] = second compound 1 µM, first compound 0.00316 µM
[51] = second compound 1 µM, first compound 0.00999 µM
[52] = second compound 1 µM, first compound 0.0999 µM
[53] = second compound 3.16 µM, first compound 0.000999 µM
[54] = second compound 3.16 µM, first compound 0.00316 µM
[55] = second compound 3.16 µM, first compound 0.00999 µM
[56] = second compound 3.16 µM, first compound 0.0999 µM
[57] = second compound 10 µM, first compound 0.000999 µM
[58] = second compound 10 µM, first compound 0.00316 µM
[59] = second compound 10 µM, first compound 0.00999 µM
[60] = second compound 10 µM, first compound 0.0999 µM
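Also: spheroids exposed to compounds for seven days.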
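For viability, T/C in this document: 100% = DMSO vehicle control viability.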

COc1ccc([C@@H](O)c2cc(-c3ncnc4cc(N5CCOCC5)ccc34)c(F)cc2Cl)nn1 + Cc1cnc(CNC(=O)c2c(=O)c3ccc(N4CCCN(C)CC4)nc3n3c2sc2ccccc23)cn1
IC50 (second compound 0.0316 µM): 2860 nM | IC50 (second compound 0.1 µM): 1020 nM | IC50 (second compound 0.316 µM): 456 nM | IC50 (second compound 1 µM): 3990 nM | IC50 (second compound 3.16 µM): 1830 nM | IC50 (second compound 10 µM): < 31.6 nM | viability, T/C [1]: 84.2% | viability, T/C [2]: 60.5% | viability, T/C [3]: 88.1% | viability, T/C [4]: 66.6% | viability, T/C [5]: 49.9% | viability, T/C [6]: 42.9% | viability, T/C [7]: 79.9% | viability, T/C [8]: 61.7% | viability, T/C [9]: 67.7% | viability, T/C [10]: 44.3% | viability, T/C [11]: 44.1% | viability, T/C [12]: 35.6% | viability, T/C [13]: 66.7% | viability, T/C [14]: 54.3% | viability, T/C [15]: 48.1% | viability, T/C [16]: 52.6% | viability, T/C [17]: 45.5% | viability, T/C [18]: 38.1% | viability, T/C [19]: 57.1% | viability, T/C [20]: 49.5% | viability, T/C [21]: 56.7% | viability, T/C [22]: 57.7% | viability, T/C [23]: 58.6% | viability, T/C [24]: 27.1% | viability, T/C [25]: 51.8% | viability, T/C [26]: 51% | viability, T/C [27]: 55.7% | viability, T/C [28]: 52.3% | viability, T/C [29]: 47.8% | viability, T/C [30]: 14.6% | viability, T/C [31]: 45% | viability, T/C [32]: 50.7% | viability, T/C [33]: 46.8% | viability, T/C [34]: 38.6% | viability, T/C [35]: 30.3% | viability, T/C [36]: 4.3%

Cn1ncnc1[C@H]1c2n[nH]c(=O)c3cc(F)cc(c23)N[C@@H]1c1ccc(F)cc1 + Cc1[nH]c2ccc(F)cc2c1-c1nc2c3cccnc3c3ncccc3c2[nH]1
IC50 (second compound 0.0316 µM): > 316 nM | IC50 (second compound 0.1 µM): > 316 nM | IC50 (second compound 0.316 µM): > 316 nM | IC50 (second compound 1 µM): > 316 nM | IC50 (second compound 3.16 µM): > 316 nM | IC50 (second compound 10 µM): > 316 nM | viability, T/C [37]: 102% | viability, T/C [38]: 100% | viability, T/C [39]: 83.8% | viability, T/C [1]: 88% | viability, T/C [40]: 85% | viability, T/C [3]: 61.5% | viability, T/C [41]: 92.4% | viability, T/C [42]: 85.4% | viability, T/C [43]: 80.8% | viability, T/C [7]: 97.5% | viability, T/C [44]: 80.1% | viability, T/C [9]: 54.1% | viability, T/C [45]: 100% | viability, T/C [46]: 98.6% | viability, T/C [47]: 108% | viability, T/C [13]: 111% | viability, T/C [48]: 122% | viability, T/C [15]: 64.9% | viability, T/C [49]: 110% | viability, T/C [50]: 82.8% | viability, T/C [51]: 100% | viability, T/C [19]: 97.1% | viability, T/C [52]: 93.3% | viability, T/C [21]: 69.6% | viability, T/C [53]: 118% | viability, T/C [54]: 92.6% | viability, T/C [55]: 106% | viability, T/C [25]: 84.2% | viability, T/C [56]: 94.9% | viability, T/C [27]: 70.6% | viability, T/C [57]: 111% | viability, T/C [58]: 93% | viability, T/C [59]: 119% | viability, T/C [31]: 112% | viability, T/C [60]: 75% | viability, T/C [33]: 81.9%

CC(C)n1c(=O)n(C)c2cnc3cc(F)c(-c4ccc(OCCCN5CCCCC5)nc4)cc3c21 + Cc1cnc(CNC(=O)c2c(=O)c3ccc(N4CCCN(C)CC4)nc3n3c2sc2ccccc23)cn1
IC50 (second compound 0.0316 µM): > 10000 nM | IC50 (second compound 0.1 µM): 255 nM | IC50 (second compound 0.316 µM): < 31.6 nM | IC50 (second compound 1 µM): 480 nM | IC50 (second compound 3.16 µM): < 31.6 nM | IC50 (second compound 10 µM): < 31.6 nM | viability, T/C [1]: 87.1% | viability, T/C [2]: 75% | viability, T/C [3]: 59.3% | viability, T/C [4]: 59.8% | viability, T/C [5]: 52.9% | viability, T/C [6]: 52% | viability, T/C [7]: 53.6% | viability, T/C [8]: 54.5% | viability, T/C [9]: 44.9% | viability, T/C [10]: 45.4% | viability, T/C [11]: 52.9% | viability, T/C [12]: 41.6% | viability, T/C [13]: 52.2% | viability, T/C [14]: 41.4% | viability, T/C [15]: 46.9% | viability, T/C [16]: 40% | viability, T/C [17]: 59.2% | viability, T/C [18]: 46.6% | viability, T/C [19]: 44.1% | viability, T/C [20]: 53.9% | viability, T/C [21]: 54.4% | viability, T/C [22]: 49.5% | viability, T/C [23]: 45.6% | viability, T/C [24]: 38.6% | viability, T/C [25]: 45.4% | viability, T/C [26]: 45.6% | viability, T/C [27]: 49% | viability, T/C [28]: 48.6% | viability, T/C [29]: 58.8% | viability, T/C [30]: 44.6% | viability, T/C [31]: 41.9% | viability, T/C [32]: 43.6% | viability, T/C [33]: 36.6% | viability, T/C [34]: 42.1% | viability, T/C [35]: 37.9% | viability, T/C [36]: 28.3%

Cc1[nH]c2ccccc2c1CCNCc1ccc(/C=C/C(=O)NO)cc1 + Cc1[nH]c2ccc(F)cc2c1-c1nc2c3cccnc3c3ncccc3c2[nH]1
IC50 (second compound 0.0316 µM): > 316 nM | IC50 (second compound 0.1 µM): > 316 nM | IC50 (second compound 0.316 µM): > 316 nM | IC50 (second compound 1 µM): > 316 nM | IC50 (second compound 3.16 µM): > 316 nM | IC50 (second compound 10 µM): > 316 nM | viability, T/C [37]: 95.9% | viability, T/C [38]: 87% | viability, T/C [39]: 100% | viability, T/C [1]: 77.6% | viability, T/C [40]: 75.6% | viability, T/C [3]: 61.3% | viability, T/C [41]: 94.1% | viability, T/C [42]: 100% | viability, T/C [43]: 85.3% | viability, T/C [7]: 83.3% | viability, T/C [44]: 79.3% | viability, T/C [9]: 55.8% | viability, T/C [45]: 96.2% | viability, T/C [46]: 93.5% | viability, T/C [47]: 91% | viability, T/C [13]: 81.2% | viability, T/C [48]: 88.3% | viability, T/C [15]: 66.9% | viability, T/C [49]: 96.3% | viability, T/C [50]: 92.2% | viability, T/C [51]: 115% | viability, T/C [19]: 84% | viability, T/C [52]: 100% | viability, T/C [21]: 50.6% | viability, T/C [53]: 93.5% | viability, T/C [54]: 80.6% | viability, T/C [55]: 80% | viability, T/C [25]: 79.1% | viability, T/C [56]: 95.4% | viability, T/C [27]: 71.8% | viability, T/C [57]: 82.6% | viability, T/C [58]: 109% | viability, T/C [59]: 88.2% | viability, T/C [31]: 82.8% | viability, T/C [60]: 112% | viability, T/C [33]: 70.3%
